Results reported in US20250241878A1, “TYROSINE AND RESVERATROL DERIVATIVES AS NOVEL MODULATORS OF CELLULAR SERINE ADP-RIBOSYLATION” (UNIVERSITY OF SOUTH CAROLINA, priority 2022, published 2025).
Read-outs that look alike come from different tables or passages of the source.

Tests used:
[1] = system: TyrRS; format: cell-based, rat; conditions: for effect on NMDA- and MPP+-mediated decrease of neuronal TyrRS: combination with NMDA or MPP+, 4 hr
Experimental: (§1) Primary cortical neurons were dissected from E18 Sprague Dawley rat pups in Hibernate E (BrainBits®) and dissociated using the Neural Tissue Dissociation kit (Miltenyi Biotec). Minced cortices were incubated in a pre-warmed enzyme mix at 37° C. for 15 min; tissues were then triturated and strained using a 40 μm cell strainer. After washing and centrifugation, neurons were seeded in 50 μg/ml poly-D-Lysine (Sigma-Aldrich) coated tissue culture plates. NBActive-1 medium (BrainBits®) supplemented with 100 U/ml of Penicillin-Streptomycin (Life Technologies™), 2 mM L-Glutamine (Life Technologies™), and 1×N21 supplement (R&D Systems™) was used as culture medium. For preparation of culture medium containing reduced tyrosine, the components of NBActive-1 medium were altered to combined with a reduced concentration of tyrosine, as mentioned in Table 1, and was supplemented with 100 U/ml of Penicillin-Streptomycin (Life Technologies™), 2 mM L-Glutamine (Life Technologies™), and 1×N21 supplement (R&D Systems™) to obtained culture medium with reduced tyrosine. Control (non-targeting), TyrRS, and PARP1 siRNAs were obtained from Invitrogen™ (#AM4635, s443, and s130207, respectively). Rat cortical neurons at 5 DIV were transfected with 75 nM control or TyrRS siRNA using DharmaFECT™ 3 Transfection Reagent. A second transfection was done two days later using 75 nM of TyrRS siRNA, followed by cell collection or assays after another 48 hr. For PARP1 siRNA, neurons at 7 DIV were transfected with 75 nM siRNA for both control and PARP1 siRNA.
(§2) Cultured neurons (DIV 9-10) were washed once with cold 1×PBS and lysed in cell lysis buffer (20 mM Tris-HCl (pH 7.5), 150 mM NaCl, 1 mM Na2EDTA, 1 mM EGTA, 1% Triton™, 2.5 mM sodium pyrophosphate, 1 mM beta-glycerophosphate, 1 mM Na3VO4, 1 μg/ml leupeptin supplemented with protease inhibitor). The lysates were centrifuged at 10,000 RPM for 15 mins at 4° C. to separate the chromatin-bound and soluble fractions. Lysates were quantified using Bio-Rad™ Protein Assay and equal amounts of protein were loaded onto a 4 to 12% gradient gel (Invitrogen™ NuPAGE™). Protein was transferred from the gel to 0.2 μm NC membranes at 25 V for 10 mins using transfer stacks (iBlot™ 2-Invitrogen™) and blocked with 5% non-fat milk in TBST (10 mM Tris-HCl pH 8.0, 150 mM NaCl, 0.01% Tween-20) for 1 hr before application of primary antibodies. Primary and secondary antibodies were incubated overnight at 4° C. and for 1 hr at room temperature, respectively. Immobilon® ECL Ultra Western HRP Substrate (WBULS0500, Millipore™) and a luminescent image analyzer (ChemiDoc™ Imaging System, Bio-Rad™) were used to detect proteins. Quantification of western blots was done using ImageJ (Version 1.53c).
(§3) Cultured cortical neurons (DIV 9-10) were fixed in 4% formaldehyde for 15 min, followed by permeabilization and blocking for 30 min in 5% BSA (PBS) and 0.1% Tween™ 20 at room temperature. Incubation with primary antibodies was done at 4° C. overnight. The names and dilutions of the primary antibodies used for IF are described in Table 3. Secondary antibodies were incubated for 1 hr at room temperature. Secondary antibodies used were Alexa Fluor® 647 (anti-chicken), Alexa Fluor® 555 (anti-mouse), Alexa Fluor® 488 (anti-rabbit) from Invitrogen™ at 1:1000 dilution. Coverslips were then mounted using DAPI (4′,6-diamidino-2-phenylindole)-supplemented mounting medium, ProLong™ Gold Antifade (Invitrogen™) and imaged with Leica DMI6000 epifluorescent microscope using oil immersion 63×/NA 1.4 objective. The quantification for total protein levels in neurons was done using ImageJ (version 1.53c), and imaging parameters were matched for exposure, gain, and offset.
(§4) The various compounds used for treatments and their stock concentrations in Table 4.

[2] = system: histone H3-Ser10-ADP-ribosylation; assay: Histone H3 serine-ADP-ribosylation immunoblot in cortical neurons; format: cell-based, rat; conditions: compound alone
Experimental: FIG. 5B presents representative immunoblots and quantification of histone H3-Ser10-ADP-ribosylation levels in cortical neurons (DIV9) using anti-H3-Ser10-ADPR antibody after treatment with D-tyrosine (2.5 and 5 mM).
as §2

[3] = system: eEF2; assay: eEF2 phosphorylation (p-eEF2) Western blot in cortical neurons; format: cell-based, rat; conditions: compound alone
Experimental: as §1, §2

[4] = system: PheRSα/β; assay: PheRSα/β protein levels in cortical neurons (Western blot); format: cell-based, rat
Experimental: as §1, §2, §4

[5] = biological target: T1, interaction of eEF2 with TyrRS and PP2A (Rattus norvegicus, UniProt Q4KM49); assay: eEF2 immunoprecipitation probed for PP2A and TyrRS; format: cell-based; conditions: compound alone
T1 construct: endogenous in cells; host or cells: primary rat (E18 Sprague Dawley) cortical neurons
T1 sequence (Q4KM49 1-528): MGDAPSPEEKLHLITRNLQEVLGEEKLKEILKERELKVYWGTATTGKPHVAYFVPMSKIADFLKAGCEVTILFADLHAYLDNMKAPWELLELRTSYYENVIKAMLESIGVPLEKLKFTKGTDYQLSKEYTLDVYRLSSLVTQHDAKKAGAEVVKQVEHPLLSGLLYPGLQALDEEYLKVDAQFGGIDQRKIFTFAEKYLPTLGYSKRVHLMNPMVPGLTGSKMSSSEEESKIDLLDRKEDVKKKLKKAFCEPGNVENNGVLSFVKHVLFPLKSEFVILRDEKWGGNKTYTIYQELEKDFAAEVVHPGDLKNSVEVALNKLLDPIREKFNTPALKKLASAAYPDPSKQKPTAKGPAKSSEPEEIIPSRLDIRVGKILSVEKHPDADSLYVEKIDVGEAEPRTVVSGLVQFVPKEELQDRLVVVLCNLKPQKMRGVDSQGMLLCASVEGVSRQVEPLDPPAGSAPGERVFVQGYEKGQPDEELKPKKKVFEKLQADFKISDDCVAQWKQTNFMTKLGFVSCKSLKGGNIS
Excerpt: Immunoprecipitated eEF2 was probed for its interaction with PP2A and TyrRS using their specific antibodies.

[6] = system: γ-H2AX; assay: γ-H2AX foci immunostaining in cortical neurons; format: cell-based, rat; conditions: for γ-H2AX (DNA damage marker): compound alone
Experimental: as §3

[7] = system: 8-oxo-dG; assay: 8-oxo-dG immunofluorescence in cortical neurons; format: cell-based, rat; conditions: for 8-oxo-dG (oxidative DNA damage marker): compound alone
Experimental: as §3

[8] = system: neuronal chromatin; assay: Chromatin fraction immunoblots of cortical neurons; format: cell-based, rat; conditions: compound alone
Experimental: as §2

Oc1ccc(/C=C/c2cc(O)cc(O)c2)cc1 [trans-RSV, trans-resveratrol]
effect on NMDA- and MPP+-mediated decrease of neuronal TyrRS [1]: exacerbated it
TyrRS protein levels ([1]; high dose of trans-RSV (50 μM)): decreased it
TyrRS protein levels ([1]; low dose of trans-RSV (10 μm)): increased TyrRS
histone H3 serine-ADP-ribosylation [2]: inhibiting histone H3 serine-ADP-ribosylation
eEF2 phosphorylation (p-eEF2) [3]: increased p-eEF2 levels
PheRSα levels ([4]; high concentration trans-RSV): decreased PheRSβ, not PheRSα levels
PheRSβ levels ([4]; high concentration trans-RSV): decreased PheRSβ
interaction of eEF2 with TyrRS and PP2A [5]: decreased their interactions
γ-H2AX (DNA damage marker) [6]: caused the accumulation of γ-H2AX and 8-oxo-dG
8-oxo-dG (oxidative DNA damage marker) [7]: caused the accumulation of γ-H2AX and 8-oxo-dG
PARylated proteins in the chromatin fraction [8]: increased the levels of PARylated proteins in the chromatin fraction
association of PARP1 with the chromatin [8]: increased the association of PARP1 with the chromatin
recruitment of ARH3 to the chromatin [8]: differential effects on the recruitment of ARH3 to the chromatin
recruitment of PARP2, HPF1 and OGG1 to the chromatin [8]: prevented their recruitment

N[C@@H](Cc1ccc(O)cc1)C(=O)O [tyrosine, L-tyrosine]
time until TyrRS levels were restored ([1]; after tyrosine treatment): 16 to 24 h
TyrRS protein levels ([1]; compound alone, rat cortical neurons): decreased TyrRS
histone H3 serine-ADP-ribosylation [2]: inhibiting histone H3 serine-ADP-ribosylation
eEF2 phosphorylation (p-eEF2) [3]: inhibited eEF2
PheRSβ levels ([4]; compound alone): depleted PheRSβ
levels of PheRSβ ([4]; second statement of the same sentence, see doubts): did not affect the levels of PheRSβ
interaction of eEF2 with TyrRS and PP2A [5]: decreased their interactions
γ-H2AX (DNA damage marker) [6]: accumulation of γ-H2AX foci
8-oxo-dG (oxidative DNA damage marker) [7]: resulted in the accumulation
association of PARP1 with the chromatin [8]: trapping of PARP1

Oc1ccc(/C=C\c2cc(O)cc(O)c2)cc1 [cis-RSV, cis-resveratrol]
TyrRS protein levels ([1]; cis-RSV 10-50 μM): increased TyrRS protein levels both in the nucleus and neurites
effect on trans-RSV- and tyrosine-mediated decrease in TyrRS levels ([1]; combination treatment): rescued the effects of trans-RSV and tyrosine-mediated decrease in TyrRS levels in a dose-dependent manner
effect on NMDA- and MPP+-mediated decrease of neuronal TyrRS [1]: suppressed this effect
effect on nelfinavir-mediated depletion of TyrRS ([1]; combination with nelfinavir): rescued
histone H3 serine-ADP-ribosylation [2]: stimulated serine-ADP-ribosylation
eEF2 phosphorylation (p-eEF2) [3]: activated the dephosphorylation of eEF2
PheRSβ and PheRSα levels ([4]; low concentration cis-RSV): increased their levels
interaction of eEF2 with TyrRS and PP2A [5]: facilitated the interaction of eEF2 with TyrRS and PP2A
γ-H2AX levels ([6]; added after 12 hr of tyrosine pretreatment): reduced γ-H2AX levels
effect on tyrosine-induced accumulation of γ-H2AX ([6]; combination with tyrosine): rescued tyrosine-induced accumulation of γ-H2AX and 8-oxo-dG
γ-H2AX levels after ETO-mediated DNA damage ([6]; with etoposide (ETO)): decreased levels of γ-H2AX
effect on tyrosine-induced accumulation of 8-oxo-dG ([7]; combination with tyrosine): rescued tyrosine-induced accumulation of γ-H2AX and 8-oxo-dG
PARylated proteins in the chromatin fraction [8]: activated the de-ADP-ribosylation of the chromatin fraction
TyrRS in the chromatin fraction [8]: higher levels of TyrRS
association of PARP1 with the chromatin [8]: resulted in its removal from the chromatin
recruitment of ARH3 to the chromatin [8]: differential effects on the recruitment of ARH3 to the chromatin
recruitment of FEN1 to the chromatin [8]: decreased the recruitment of FEN1
recruitment of PARP2, HPF1 and OGG1 to the chromatin [8]: facilitated the recruitment of PARP2 along with other DNA repair factors such as HPF1 and OGG1 to the chromatin
